Patent publication US20060084688A1, “Aromatic sulfone hydroxamic acid metalloprotease inhibitor” (priority 1997, published 2006)

Legend:
Assay in all cases: biochemical
Details in all cases: Inhibition Table B
recombinant human MMP-1 = molecular target: T1, recombinant human MMP-1 (Homo sapiens, UniProt P03956)
T1 construct: made in house; host or cells: transfected HT-1080 cells
T1 sequence (P03956 100-469): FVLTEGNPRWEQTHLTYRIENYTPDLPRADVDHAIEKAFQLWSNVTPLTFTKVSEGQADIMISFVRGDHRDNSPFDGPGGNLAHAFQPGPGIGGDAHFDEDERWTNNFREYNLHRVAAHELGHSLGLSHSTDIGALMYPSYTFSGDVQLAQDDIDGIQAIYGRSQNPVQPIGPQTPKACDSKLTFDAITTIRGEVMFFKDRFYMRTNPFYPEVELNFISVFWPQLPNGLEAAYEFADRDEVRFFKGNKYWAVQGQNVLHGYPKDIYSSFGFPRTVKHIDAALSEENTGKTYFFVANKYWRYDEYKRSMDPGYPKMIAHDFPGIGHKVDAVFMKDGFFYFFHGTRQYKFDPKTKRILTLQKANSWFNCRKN

recombinant human MMP-2 = molecular target: T2, recombinant human MMP-2 (Homo sapiens, UniProt P08253)
T2 sequence (P08253 110-660): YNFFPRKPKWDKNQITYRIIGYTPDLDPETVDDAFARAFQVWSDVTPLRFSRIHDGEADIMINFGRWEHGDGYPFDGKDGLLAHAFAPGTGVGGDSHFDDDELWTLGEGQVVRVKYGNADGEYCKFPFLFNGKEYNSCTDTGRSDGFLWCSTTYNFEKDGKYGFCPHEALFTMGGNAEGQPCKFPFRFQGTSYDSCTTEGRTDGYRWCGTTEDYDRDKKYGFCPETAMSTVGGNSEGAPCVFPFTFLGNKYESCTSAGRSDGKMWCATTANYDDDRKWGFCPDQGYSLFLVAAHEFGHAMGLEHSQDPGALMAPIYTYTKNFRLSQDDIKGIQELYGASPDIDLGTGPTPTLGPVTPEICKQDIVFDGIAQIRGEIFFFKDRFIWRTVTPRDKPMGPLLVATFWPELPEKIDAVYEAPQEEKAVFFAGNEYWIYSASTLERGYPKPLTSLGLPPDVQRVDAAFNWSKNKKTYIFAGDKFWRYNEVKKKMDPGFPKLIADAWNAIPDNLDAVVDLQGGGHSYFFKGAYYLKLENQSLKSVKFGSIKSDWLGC

recombinant human MMP-13 = recombinant human MMP-13 (Homo sapiens, UniProt P45452)

SMILES	IC50 (recombinant human MMP-1)	IC50 (recombinant human MMP-2)	IC50 (recombinant human MMP-13)
CC1(C)C[C@@H]2C[C@@](C)(CN2C(=O)C2CCN(c3ccc(S(=O)(=O)C4(C(=O)NO)CCOCC4)cc3)CC2)C1 [Example 164]	> 10 µM	1.75 µM	0.02 µM
O=C(C1CCN(c2ccc(S(=O)(=O)C3(C(=O)NO)CCOCC3)cc2)CC1)N1CCCCCC1 [Example 165]	> 10 µM	0.33 µM	0.0136 µM
O=C(C1CCCN(c2ccc(S(=O)(=O)C3(C(=O)NO)CCOCC3)cc2)C1)N1CCC(O)C1 (stereo not drawn) [Example 166]	> 10 µM	> 1 µM	> 0.1 µM
CN(C)[C@H]1CCN(C(=O)C2CCCN(c3ccc(S(=O)(=O)C4(C(=O)NO)CCOCC4)cc3)C2)C1 (stereo partly drawn) [Example 167]	> 10 µM	> 1 µM	> 0.1 µM
N[C@H]1CCN(C(=O)C2CCCN(c3ccc(S(=O)(=O)C4(C(=O)NO)CCOCC4)cc3)C2)C1 (stereo partly drawn) [Example 168]	> 10 µM	> 1 µM	> 0.1 µM
O=C(C1CCCN(c2ccc(S(=O)(=O)C3(C(=O)NO)CCOCC3)cc2)C1)N1CCC(N2CCCC2)CC1 (stereo not drawn) [Example 171]	> 10 µM	> 1 µM	> 0.1 µM
O=C(C1CCCN(c2ccc(S(=O)(=O)C3(C(=O)NO)CCOCC3)cc2)C1)N1CCCC1 (stereo not drawn) [Example 172]	> 10 µM	> 1 µM	> 0.1 µM
O=C(C1CCN(c2ccc(S(=O)(=O)C3(C(=O)NO)CCOCC3)cc2)CC1)N1CCC(O)C1 (stereo not drawn) [Example 173]	> 10 µM	> 1 µM	> 0.1 µM
CN(C)[C@H]1CCN(C(=O)C2CCN(c3ccc(S(=O)(=O)C4(C(=O)NO)CCOCC4)cc3)CC2)C1 [Example 174]	8 µM	0.9 µM	> 0.1 µM
O=C(C1CCN(c2ccc(S(=O)(=O)C3(C(=O)NO)CCOCC3)cc2)CC1)N1CCCC2CCCCC21 (stereo not drawn) [Example 177]	> 10 µM	0.4 µM	0.021 µM
O=C(C1CCN(c2ccc(S(=O)(=O)C3(C(=O)NO)CCOCC3)cc2)CC1)N1CCC(N2CCCC2)CC1 [Example 178]	> 10 µM	0.54 µM	> 0.1 µM
C=CCN(CC=C)C(=O)C1CCN(c2ccc(S(=O)(=O)C3(C(=O)NO)CCOCC3)cc2)CC1 [Example 182]	> 10 µM	0.24 µM	0.004 µM
CN(C)CCCN(CCCN(C)C)C(=O)C1CCN(c2ccc(S(=O)(=O)C3(C(=O)NO)CCOCC3)cc2)CC1 [Example 183]	> 10 µM	0.288 µM	0.04 µM
CC(C)NC(=O)C1CCN(c2ccc(S(=O)(=O)C3(C(=O)NO)CCOCC3)cc2)CC1 [Example 184]	> 10 µM	0.094 µM	0.007 µM
O=C(NN1CCOCC1)C1CCN(c2ccc(S(=O)(=O)C3(C(=O)NO)CCOCC3)cc2)CC1 [Example 185]	> 10 µM	0.21 µM	0.0175 µM
O=C(NCc1cccnc1)C1CCN(c2ccc(S(=O)(=O)C3(C(=O)NO)CCOCC3)cc2)CC1 [Example 186]	> 10 µM	0.12 µM	0.01 µM
O=C(NC1CCCCC1)C1CCN(c2ccc(S(=O)(=O)C3(C(=O)NO)CCOCC3)cc2)CC1 [Example 187]	> 10 µM	0.29 µM	0.0121 µM
O=C(NC1CCc2ccccc21)C1CCN(c2ccc(S(=O)(=O)C3(C(=O)NO)CCOCC3)cc2)CC1 (stereo not drawn) [Example 188]	> 10 µM	0.35 µM	0.0094 µM
O=C(NCc1cccs1)C1CCN(c2ccc(S(=O)(=O)C3(C(=O)NO)CCOCC3)cc2)CC1 [Example 189]	3.7 µM	0.094 µM	0.008 µM

SMILES	IC50 (recombinant human MMP-1)	IC50 (recombinant human MMP-2)	IC50 (recombinant human MMP-13)
CC1CCN(C(=O)C2CCN(c3ccc(S(=O)(=O)C4(C(=O)NO)CCOCC4)cc3)CC2)CC1 [Example 190]	> 10 µM	0.22 µM	0.0106 µM
O=C(C1CCN(c2ccc(S(=O)(=O)C3(C(=O)NO)CCOCC3)cc2)CC1)N1CCC(Cc2ccccc2)CC1 [Example 191]	> 10 µM	0.35 µM	0.004 µM
O=C(C1CCN(c2ccc(S(=O)(=O)C3(C(=O)NO)CCOCC3)cc2)CC1)N1CCC(c2ccccc2)CC1 [Example 192]	> 10 µM	0.33 µM	0.01 µM
O=C(C1CCN(c2ccc(S(=O)(=O)C3(C(=O)NO)CCOCC3)cc2)CC1)N1CCC(O)(Cc2ccccc2)CC1 [Example 193]	> 10 µM	0.39 µM	0.006 µM
O=C(NCc1ccccn1)C1CCN(c2ccc(S(=O)(=O)C3(C(=O)NO)CCOCC3)cc2)CC1 [Example 196]	> 10 µM	0.24 µM	0.025 µM
O=C(C1CCN(c2ccc(S(=O)(=O)C3(C(=O)NO)CCOCC3)cc2)CC1)N(Cc1ccccc1)Cc1ccccc1 [Example 198]	> 10 µM	0.27 µM	0.0145 µM
O=C(C1CCN(c2ccc(S(=O)(=O)C3(C(=O)NO)CCOCC3)cc2)CC1)N1CCc2ccccc2C1 [Example 199]	> 10 µM	0.155 µM	0.0014 µM
O=C(C1CCCCCC1)N1CCN(c2ccc(S(=O)(=O)C3(C(=O)NO)CCOCC3)cc2)CC1 [Example 202]	> 10 µM	0.054 µM	0.00915 µM
O=C([C@@H]1CCCN1)N1CCN(c2ccc(S(=O)(=O)C3(C(=O)NO)CCOCC3)cc2)CC1 [Example 203]	8.5 µM	0.031 µM	0.03 µM
CC(C)[C@H](N)C(=O)N1CCN(c2ccc(S(=O)(=O)C3(C(=O)NO)CCOCC3)cc2)CC1 [Example 204]	> 10 µM	0.025 µM	0.0271 µM
O=C(Oc1ccc([N+](=O)[O-])cc1)N1CCN(c2ccc(S(=O)(=O)C3(C(=O)NO)CCOCC3)cc2)CC1 [Example 205]	7.3 µM	0.0127 µM	0.002 µM
CN(C)C(=O)N1CCN(c2ccc(S(=O)(=O)C3(C(=O)NO)CCOCC3)cc2)CC1 [Example 208]	> 10 µM	0.027 µM	0.027 µM
O=C(N1CCNCC1)N1CCN(c2ccc(S(=O)(=O)C3(C(=O)NO)CCOCC3)cc2)CC1 [Example 209]	> 10 µM	0.019 µM	0.02 µM
CN1CCN(C(=O)N2CCN(c3ccc(S(=O)(=O)C4(C(=O)NO)CCOCC4)cc3)CC2)CC1 [Example 210]	> 10 µM	0.027 µM	0.02 µM
CCOC(=O)C1CCN(C(=O)N2CCN(c3ccc(S(=O)(=O)C4(C(=O)NO)CCOCC4)cc3)CC2)CC1 [Example 211]	> 10 µM	0.033 µM	0.024 µM
CCOC(=O)C1CCCN(C(=O)N2CCN(c3ccc(S(=O)(=O)C4(C(=O)NO)CCOCC4)cc3)CC2)C1 (stereo not drawn) [Example 212]	> 10 µM	0.033 µM	0.02 µM
O=C(NO)C1(S(=O)(=O)c2ccc(-c3cccc([N+](=O)[O-])c3)cc2)CCOCC1 [Example 214]	1.1 µM	< 0.001 µM	< 0.001 µM
O=C(NO)C1(S(=O)(=O)c2ccc(-c3ccc(Cl)cc3)cc2)CCOCC1 [Example 216]	1 µM	< 0.001 µM	< 0.001 µM
O=C(NO)C1(S(=O)(=O)c2ccc(-c3ccc(C(F)(F)F)cc3)cc2)CCOCC1 [Example 221]	1.6 µM	< 0.001 µM	< 0.001 µM
